From patent US5981545A, “N-linked azabicyclic heterocycles useful for treating dementia” (Beecham Group p.l.c., priority 1989, dated 1999) come the findings set out here.

Molecules are shown by their SMILES. Structures can show the parent of a compound that is named as a salt.

One may read the IC50 as the concentration that inhibits the measured activity by half. The low end stands for greater potency, the high end for weaker potency.

Experiment [1] deals with muscarinic receptors. Briefly: Radio ligand binding, displacement of muscarinic agonist 3H-Oxotremorine-M (3H-OXO-M), rat cerebral cortex membranes. More on the design: species or system Hooded Lister rats. Particulars: 2 nM 3H-OXO-M, 2 mM magnesium chloride, tris pH 7.7, 37° C., 30 min.
Experiment [2] concerns the target muscarinic receptors. Briefly: Radio ligand binding, displacement of muscarinic antagonist 3H-Quinuclidinyl Benzilate (3H-QNB), rat cerebral cortex membranes. Further details: species or system Hooded Lister rats. Particulars: 0.27 nM 3H-QNB, tris pH 7.7, 37° C., 30 min.

`Clc1nnn(C2CN3CCC2CC3)n1` (racemic) [E44, (±) 3-(5-Chlorotetrazol-2-yl)-1-azabicyclo[2.2.2]octane oxalate salt]: the 50% inhibitory concentration (IC50) at muscarinic receptors [1] stood at 31.8 nM; at muscarinic receptors [2], 725 nM.
As to `Nc1ncnn1C12CCCN(CC1)C2` (racemic) [E37, (±) 5-(5-amino-1,2,4-triazol-1-yl)-1-azabicyclo[3.2.1]octane], the half-maximal inhibitory concentration (IC50) at muscarinic receptors [1] stood at 130 nM; on muscarinic receptors [2], 58000 nM.
